A short description of the data set: Bovine Brain Endothelial Cells (BBMEC) transport studies, in vitro blood-brain barrier permeability. In kind it is in vitro ADME. As to conditions: mean ± standard deviation. As to the method: The compounds of this invention are capable of crossing the blood-brain barrier (BBB) as shown by their ability to penetrate across a membrane of a monolayer of bovine brain microvessel endothelial cells, an in vitro model for B3B permeability.
Bovine Brain Endothelial Cells (BBMEC) TIransport Studies
The procedure was performed according to: Kenneth L. Audus et al., Brain Microvessel Endothelial Cell Culture System (Chapter 13) pp 239-258. In Models for Assessing Drug Absorption and Metabolism, Ronald T. Borchardt et al. eds., Plenum Press, New York 1996, incorporated herein by reference.

`COc1c(O[Si](C(C)C)(C(C)C)C(C)C)cccc1C(OC(=O)[C@@H](OC)c1ccccc1)C1CCN(CCc2ccc(F)cc2)CC1` (stereo partly drawn) [Example 1C, (S)-Methoxy-2-phenyl-acetic acid {1-[2-(4-fluoro-phenyl)-ethyl]-piperidin-4-yl}-(2-methoxy-3-triisopropylsilanyloxy-phenyl)-methyl ester]: the apparent permeability (Papp) at 5.4 µM (5.4 μM) stood at 41.4 ± 16.4 ×10⁻⁶ cm/s. Under “16 μM”, this compound came in with an apparent permeability coefficient (Papp) at 16 µM of 52.5 ± 9.5 ×10⁻⁶ cm/s.

As a reminder, the Papp is the rate of passage across a membrane or cell layer, normalised by area and donor concentration. Low values mean poor permeation, high ones ready permeation.

The values are drawn from US6465490B1, “Sulfuric acid mono-[3({1-[2-(4-fluoro-phenyl)-ethyl]-piperidin-4-yl}-hydroxy-methyl)-2-methoxy-phenyl]ester” (Aventis Pharmaceuticals Inc., priority 1999, dated 2002).
